# Assays:
# lactobacillus = test: More detailed screening of the products for ingredients responsible for growth retardation (data not shown); format: cell-based
# Text: A more detailed screening of the products (data not shown) led to a few common ingredients found in most shower cosmetics that can be held responsible for the growth retardation in FIG. 1.0. […] As strong and fast working preservatives; phenoxyethanol, parabens, bronopol, sulphites/sulphates, benzylalcohol and others were identified. Most allergens in perfume can also be identified as being harmful for bacteria.
# Spread plating = format: cell-based; details: surfactants of negative control P3
# Procedure: The negative control (P3) has no growth after incubation in MRS. It contains the anionic Sodium Laureth sulphate (14% final) and cocamidopropyl betaine, some of the most commonly used surfactants in present-day soaps.
Substance,effect on bacteria / the present lactobacillus (lactobacillus),bactericidal effect (Spread plating)
Sodium laureth sulphate,very strong bactericidal effect,bactericidal effect
cocamidopropyl betaine,big negative influence,bactericidal effect

# Reference: patent US20190274937A1, “MICROBIOME-SAFE COSMETIC CLEANING COMPOSITIONS” (Yun NV, priority 2016, published 2019)
